Measured values from patent US8802597B2, “Herbicidal pyrimidines” (E I du Pont de Nemours and Company, priority 2003, dated 2014).

Tests used:
Assay in all cases: Test D pre/postemergence
Assay type in all cases: in vivo
Conditions in all cases: scale 0 to 100 (100 = complete control)
[1] = system: common chickweed (Stellaria media)
Excerpt: (§1) Seeds of plant species selected from catchweed bedstraw (galium; Galium aparine), common chickweed (Stellaria media), kochia (Kochia scoparia), lambsquarters (Chenopodium album), pigweed (Amaranthus retroflexus), Russian thistle (Salsola kali), wild buckwheat (Polygonum convolvulus), wild mustard (Sinapis arvensis), winter barley (Hordeum vulgare), and wheat (Triticum aestivum) were planted and treated preemergence with test chemicals formulated in a non-phytotoxic solvent mixture which included a surfactant.
(§2) At the same time, plants selected from these crop and weed species were treated with postemergence applications of some of the test chemicals formulated in the same manner. Plants ranged in height from 2 to 18 cm (1- to 4-leaf stage) for postemergence treatments. Treated plants and controls were maintained in a controlled growth environment for 15 to 25 days after which time all species were compared to controls and visually evaluated. Plant response ratings, summarized in Table D, are based on a scale of 0 to 100 where 0 is no effect and 100 is complete control. A dash (-) response means no test result.

[2] = system: wild buckwheat (Polygonum convolvulus)
Excerpt: as §1, §2

[3] = system: kochia (Kochia scoparia)
Excerpt: as §1, §2

[4] = system: wild mustard (Sinapis arvensis)
Excerpt: as §1, §2

[5] = system: pigweed (Amaranthus retroflexus)
Excerpt: as §1, §2

[6] = system: Russian thistle (Salsola kali)
Excerpt: as §1, §2

[7] = system: lambsquarters (Chenopodium album)
Excerpt: as §1, §2

[8] = system: wheat (Triticum aestivum)
Excerpt: as §1, §2

[9] = system: catchweed bedstraw (galium; Galium aparine)
Excerpt: as §1, §2

In the case of `COC(=O)c1nc(C2CC2C)nc(N)c1Br` (centres unmarked) [Compound 28], the “Plant response rating, Chickweed” value ([1]; Postemergence, 62 g ai/ha) is reported as 65, the “Plant response rating, Chickweed” value ([1]; Postemergence, 125 g ai/ha) is reported as 65 and the “Plant response rating, Chickweed” value ([1]; Postemergence, 250 g ai/ha) is reported as 65. For the same molecule, the “Plant response rating, Chickweed” value ([1]; Preemergence, 62 g ai/ha) was 60, the “Plant response rating, Chickweed” value ([1]; Preemergence, 125 g ai/ha) was 60 and the “Plant response rating, Chickweed” value ([1]; Preemergence, 250 g ai/ha) was 60. The “Plant response rating, Buckwheat, Wild” value ([2]; Postemergence, 62 g ai/ha) was 35, the “Plant response rating, Buckwheat, Wild” value ([2]; Postemergence, 125 g ai/ha) was 55 and the “Plant response rating, Buckwheat, Wild” value ([2]; Postemergence, 250 g ai/ha) was 60. The “Plant response rating, Buckwheat, Wild” value ([2]; Preemergence, 62 g ai/ha) was 45, the “Plant response rating, Buckwheat, Wild” value ([2]; Preemergence, 125 g ai/ha) was 45 and the “Plant response rating, Buckwheat, Wild” value ([2]; Preemergence, 250 g ai/ha) was 60. The “Plant response rating, Kochia” value ([3]; Postemergence, 62 g ai/ha) was 70, the “Plant response rating, Kochia” value ([3]; Postemergence, 125 g ai/ha) was 75 and the “Plant response rating, Kochia” value ([3]; Postemergence, 250 g ai/ha) was 75. The “Plant response rating, Kochia” value ([3]; Preemergence, 62 g ai/ha) was 45, the “Plant response rating, Kochia” value ([3]; Preemergence, 125 g ai/ha) was 80 and the “Plant response rating, Kochia” value ([3]; Preemergence, 250 g ai/ha) was 100. For the same molecule, the “Plant response rating, Mustard, Wild” value ([4]; Postemergence, 62 g ai/ha) was 45, the “Plant response rating, Mustard, Wild” value ([4]; Postemergence, 125 g ai/ha) was 60 and the “Plant response rating, Mustard, Wild” value ([4]; Postemergence, 250 g ai/ha) was 60. The “Plant response rating, Mustard, Wild” value ([4]; Preemergence, 62 g ai/ha) was 60, the “Plant response rating, Mustard, Wild” value ([4]; Preemergence, 125 g ai/ha) was 60 and the “Plant response rating, Mustard, Wild” value ([4]; Preemergence, 250 g ai/ha) was 60. For the same molecule, the “Plant response rating, Pigweed” value ([5]; Postemergence, 62 g ai/ha) was 60, the “Plant response rating, Pigweed” value ([5]; Postemergence, 125 g ai/ha) was 60 and the “Plant response rating, Pigweed” value ([5]; Postemergence, 250 g ai/ha) was 70. The “Plant response rating, Pigweed” value ([5]; Preemergence, 62 g ai/ha) was 45, the “Plant response rating, Pigweed” value ([5]; Preemergence, 250 g ai/ha) was 80 and the “Plant response rating, Russian Thistle” value ([6]; Postemergence, 62 g ai/ha) was 65. For the same molecule, the “Plant response rating, Russian Thistle” value ([6]; Postemergence, 125 g ai/ha) was 70, the “Plant response rating, Russian Thistle” value ([6]; Postemergence, 250 g ai/ha) was 70 and the “Plant response rating, Russian Thistle” value ([6]; Preemergence, 62 g ai/ha) was 45. The “Plant response rating, Russian Thistle” value ([6]; Preemergence, 125 g ai/ha) was 80, the “Plant response rating, Russian Thistle” value ([6]; Preemergence, 250 g ai/ha) was 100 and the “Plant response rating, Lambsquarters” value ([7]; Postemergence, 62 g ai/ha) was 65. For the same molecule, the “Plant response rating, Lambsquarters” value ([7]; Postemergence, 125 g ai/ha) was 70, the “Plant response rating, Lambsquarters” value ([7]; Postemergence, 250 g ai/ha) was 75 and the “Plant response rating, Lambsquarters” value ([7]; Preemergence, 62 g ai/ha) was 60. The “Plant response rating, Lambsquarters” value ([7]; Preemergence, 125 g ai/ha) was 60, the “Plant response rating, Lambsquarters” value ([7]; Preemergence, 250 g ai/ha) was 60 and the “Plant response rating, Wheat” value ([8]; Postemergence, 62 g ai/ha) was 20. For the same molecule, the “Plant response rating, Wheat” value ([8]; Postemergence, 125 g ai/ha) was 35, the “Plant response rating, Wheat” value ([8]; Postemergence, 250 g ai/ha) was 35 and the “Plant response rating, Wheat” value ([8]; Preemergence, 62 g ai/ha) was 20. The “Plant response rating, Wheat” value ([8]; Preemergence, 125 g ai/ha) was 35, the “Plant response rating, Wheat” value ([8]; Preemergence, 250 g ai/ha) was 35 and the “Plant response rating, Galium” value ([9]; Postemergence, 62 g ai/ha) was 100. The “Plant response rating, Galium” value ([9]; Postemergence, 250 g ai/ha) was 100, the “Plant response rating, Galium” value ([9]; Preemergence, 62 g ai/ha) was 100 and the “Plant response rating, Galium” value ([9]; Preemergence, 125 g ai/ha) was 100. For the same molecule, the “Plant response rating, Galium” value ([9]; Preemergence, 250 g ai/ha) was 100.
For `CCOC(=O)Cc1nc(C2CC2)nc(N=CN(C)C)c1Br` [Compound 33], the “Plant response rating, Chickweed” value ([1]; Postemergence, 62 g ai/ha) was 40, the “Plant response rating, Chickweed” value ([1]; Postemergence, 125 g ai/ha) was 50 and the “Plant response rating, Chickweed” value ([1]; Postemergence, 250 g ai/ha) was 60. The “Plant response rating, Chickweed” value ([1]; Preemergence, 250 g ai/ha) was 65, the “Plant response rating, Buckwheat, Wild” value ([2]; Postemergence, 62 g ai/ha) was 40 and the “Plant response rating, Buckwheat, Wild” value ([2]; Postemergence, 125 g ai/ha) was 50. The “Plant response rating, Buckwheat, Wild” value ([2]; Postemergence, 250 g ai/ha) was 55, the “Plant response rating, Buckwheat, Wild” value ([2]; Preemergence, 62 g ai/ha) was 55 and the “Plant response rating, Buckwheat, Wild” value ([2]; Preemergence, 125 g ai/ha) was 65. The “Plant response rating, Buckwheat, Wild” value ([2]; Preemergence, 250 g ai/ha) was 65, the “Plant response rating, Kochia” value ([3]; Postemergence, 62 g ai/ha) was 50 and the “Plant response rating, Kochia” value ([3]; Postemergence, 125 g ai/ha) was 50. For the same molecule, the “Plant response rating, Kochia” value ([3]; Postemergence, 250 g ai/ha) was 50, the “Plant response rating, Kochia” value ([3]; Preemergence, 62 g ai/ha) was 60 and the “Plant response rating, Kochia” value ([3]; Preemergence, 125 g ai/ha) was 65. For the same molecule, the “Plant response rating, Kochia” value ([3]; Preemergence, 250 g ai/ha) was 65, the “Plant response rating, Mustard, Wild” value ([4]; Postemergence, 62 g ai/ha) was 50 and the “Plant response rating, Mustard, Wild” value ([4]; Postemergence, 125 g ai/ha) was 50. The “Plant response rating, Mustard, Wild” value ([4]; Postemergence, 250 g ai/ha) was 50, the “Plant response rating, Mustard, Wild” value ([4]; Preemergence, 62 g ai/ha) was 65 and the “Plant response rating, Mustard, Wild” value ([4]; Preemergence, 125 g ai/ha) was 65. For the same molecule, the “Plant response rating, Mustard, Wild” value ([4]; Preemergence, 250 g ai/ha) was 65, the “Plant response rating, Pigweed” value ([5]; Postemergence, 62 g ai/ha) was 45 and the “Plant response rating, Pigweed” value ([5]; Postemergence, 125 g ai/ha) was 55. For the same molecule, the “Plant response rating, Pigweed” value ([5]; Postemergence, 250 g ai/ha) was 55, the “Plant response rating, Pigweed” value ([5]; Preemergence, 62 g ai/ha) was 60 and the “Plant response rating, Pigweed” value ([5]; Preemergence, 125 g ai/ha) was 70. For the same molecule, the “Plant response rating, Pigweed” value ([5]; Preemergence, 250 g ai/ha) was 90, the “Plant response rating, Russian Thistle” value ([6]; Postemergence, 62 g ai/ha) was 30 and the “Plant response rating, Russian Thistle” value ([6]; Postemergence, 125 g ai/ha) was 40. The “Plant response rating, Russian Thistle” value ([6]; Postemergence, 250 g ai/ha) was 40, the “Plant response rating, Russian Thistle” value ([6]; Preemergence, 62 g ai/ha) was 55 and the “Plant response rating, Russian Thistle” value ([6]; Preemergence, 125 g ai/ha) was 60. The “Plant response rating, Russian Thistle” value ([6]; Preemergence, 250 g ai/ha) was 85, the “Plant response rating, Lambsquarters” value ([7]; Postemergence, 62 g ai/ha) was 30 and the “Plant response rating, Lambsquarters” value ([7]; Postemergence, 125 g ai/ha) was 30. The “Plant response rating, Lambsquarters” value ([7]; Postemergence, 250 g ai/ha) was 45, the “Plant response rating, Lambsquarters” value ([7]; Preemergence, 62 g ai/ha) was 60 and the “Plant response rating, Lambsquarters” value ([7]; Preemergence, 125 g ai/ha) was 65. The “Plant response rating, Lambsquarters” value ([7]; Preemergence, 250 g ai/ha) was 65, the “Plant response rating, Wheat” value ([8]; Postemergence, 62 g ai/ha) was 35 and the “Plant response rating, Wheat” value ([8]; Postemergence, 125 g ai/ha) was 40. For the same molecule, the “Plant response rating, Wheat” value ([8]; Postemergence, 250 g ai/ha) was 45, the “Plant response rating, Wheat” value ([8]; Preemergence, 62 g ai/ha) was 15 and the “Plant response rating, Wheat” value ([8]; Preemergence, 125 g ai/ha) was 35. For the same molecule, the “Plant response rating, Wheat” value ([8]; Preemergence, 250 g ai/ha) was 55, the “Plant response rating, Galium” value ([9]; Postemergence, 62 g ai/ha) was 55 and the “Plant response rating, Galium” value ([9]; Postemergence, 125 g ai/ha) was 60. The “Plant response rating, Galium” value ([9]; Postemergence, 250 g ai/ha) was 65, the “Plant response rating, Galium” value ([9]; Preemergence, 62 g ai/ha) was 70 and the “Plant response rating, Galium” value ([9]; Preemergence, 125 g ai/ha) was 80. For the same molecule, the “Plant response rating, Galium” value ([9]; Preemergence, 250 g ai/ha) was 100.
